Source: paper PMC6027297, “A Short Peptide Inhibitor as an Activity-Based Probe for Matriptase-2” (Pharmaceuticals, 2018)
Residues, ends and D or L forms follow the SMILES beside them. *: point of attachment. Biotin = O=C1N[C@H]2[C@H](CS[C@H]2CCCCC(=O)*)N1; CH2Cl = ClC*

Assays:
matriptase-2 (MT-2) [1] = target: T1, matriptase-2 (MT-2) (Homo sapiens, UniProt Q8IU80); test: MT-2 activity on the surface of transfected HEK cells; type: cell-based
T1 construct: expressed in transfected cells; host or cells: stably transfected HEK cells
T1 sequence (Q8IU80 1-802 isoform Q8IU80-1): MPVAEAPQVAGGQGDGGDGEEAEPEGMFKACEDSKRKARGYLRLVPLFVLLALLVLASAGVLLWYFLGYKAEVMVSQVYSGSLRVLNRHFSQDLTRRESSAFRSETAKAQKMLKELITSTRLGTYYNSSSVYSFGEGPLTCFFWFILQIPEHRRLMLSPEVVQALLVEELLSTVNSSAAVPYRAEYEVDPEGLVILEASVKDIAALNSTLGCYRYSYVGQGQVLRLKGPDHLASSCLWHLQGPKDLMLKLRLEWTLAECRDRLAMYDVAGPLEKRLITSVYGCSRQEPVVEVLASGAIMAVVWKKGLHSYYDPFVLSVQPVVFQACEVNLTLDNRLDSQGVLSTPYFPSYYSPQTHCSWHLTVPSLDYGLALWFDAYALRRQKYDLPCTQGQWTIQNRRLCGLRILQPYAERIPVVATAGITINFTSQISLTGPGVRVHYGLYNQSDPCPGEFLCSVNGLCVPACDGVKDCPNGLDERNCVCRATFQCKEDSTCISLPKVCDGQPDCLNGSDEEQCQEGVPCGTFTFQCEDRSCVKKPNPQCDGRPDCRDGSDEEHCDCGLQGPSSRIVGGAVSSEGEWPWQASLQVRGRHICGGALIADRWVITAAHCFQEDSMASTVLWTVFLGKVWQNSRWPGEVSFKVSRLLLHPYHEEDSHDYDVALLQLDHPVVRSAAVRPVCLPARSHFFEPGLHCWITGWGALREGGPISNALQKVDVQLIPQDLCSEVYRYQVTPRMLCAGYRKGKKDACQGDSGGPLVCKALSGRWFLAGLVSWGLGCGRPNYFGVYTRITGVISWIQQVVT
Description: To further investigate the inhibitory potency of the probe in an in vitro approach, MT-2 activity was measured on the surface of stably transfected HEK cells expressing MT-2. Different probe concentrations were applied (Figure 3).
To measure MT-2 activity at the cell surface, HEK cells were seeded in 96 well cell culture plates and cultivated at 37 °C in DMEM medium until a confluence of approximately 70% was reached. After two washing steps with PBS and two further days of incubation in Opti-MEM medium at 37 °C, the culture medium was removed and the cells were washed two times with PBS. MT-2 assay buffer, biotin-RQRR-CMK and DMSO were then directly added to the cells before the reaction was started by adding substrate solution in a final concentration of 40 µM to each well. The conversion of the substrate by MT-2 was followed over a time of 50 min at 37 °C.

matriptase-2 (MT-2) [2] = target: T2, matriptase-2 (MT-2) (Homo sapiens, UniProt Q8IU80); test: MT-2 activity in supernatant of transfected HEK cells (fluorogenic substrate Boc-Gln-Ala-Arg-AMC); type: biochemical; details: probe 25–100 nM, Boc-Gln-Ala-Arg-AMC 40 µM, NaCl 150 mM, TRIS 50 mM, pH 8.0, 10 µg supernatant, 37 °C, 50 min, ex 340 nm, em 460 nm, non-linear regression of progress curves
T2 construct: This fragment consists of the catalytic and the three LDLRA domains of MT-2; made in house; host or cells: stably transfected HEK cells; concentrated culture supernatant, not purified
T2 sequence (Q8IU80 577-811 limits assumed): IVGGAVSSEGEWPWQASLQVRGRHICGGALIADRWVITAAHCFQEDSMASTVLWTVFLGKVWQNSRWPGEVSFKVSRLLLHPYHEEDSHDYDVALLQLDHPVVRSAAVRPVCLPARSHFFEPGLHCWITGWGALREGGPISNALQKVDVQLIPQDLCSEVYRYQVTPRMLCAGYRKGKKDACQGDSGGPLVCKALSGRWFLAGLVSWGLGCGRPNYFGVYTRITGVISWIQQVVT
T2 sequence (Q8IU80 438-576 partner limits assumed): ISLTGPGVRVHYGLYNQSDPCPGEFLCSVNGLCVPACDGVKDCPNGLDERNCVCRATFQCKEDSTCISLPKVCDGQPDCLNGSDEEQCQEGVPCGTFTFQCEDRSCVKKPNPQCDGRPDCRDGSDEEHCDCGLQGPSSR
Description: We used stably transfected human embryonic kidney (HEK) cells as the source for MT-2 [14]. […] Initially, the inhibitory potency of biotin-RQRR-CMK against MT-2 was assessed. For this purpose, we determined MT-2 activity in the supernatant of transfected HEK cells using a tripeptidic fluorogenic substrate. Probe concentrations of 25 nM to 100 nM were applied. Values kobs were obtained from non-linear regression of the progress curves of the supernatant experiment using the equation [P] = v0 (1 − e^−kobs t)/kobs + d(1) where [P] is the product concentration, v0 is the initial rate and d is the offset. […]
(§1) Stably transfected human embryonic kidney (HEK) cells expressing MT-2 or an empty vector construct were cultivated in Dulbecco’s Modified Eagle’s Medium (DMEM) containing fetal bovine serum (FBS) as well as penicillin and streptadivin in a concentration of […] at 37 °C. […] The protein concentration of the obtained protein mixture was determined by absorption measurements using Roti-Nanoquant Bradford solution.
Kinetic measurements were performed on a Fluostar Optima plate reader (BMG Lab Tech, Offenburg, Germany) in 96 well plates. […]

matriptase-2 (MT-2) [3] = test: Western blot detection of biotin-RQRR-CMK-labeled MT-2 in HEK-cell supernatant (Strep-Tactin/AP); details: 30 µg HEK-MT-2 supernatant, 50 µM aprotinin for 2 h before probe (5 µM, 30 min)
Description: Similar to antibody staining addressing the myc tag, the biotin tag which was chemically introduced by biotin-RQRR-CMK was employed for the detection of MT-2 after western blotting. For this purpose, 30 µg of HEK-mock or HEK-MT-2 supernatants were incubated with or without biotin-RQRR-CMK prior to SDS-PAGE. After transfer to a nitrocellulose membrane, the blot was incubated with a conjugate of Strep-Tactin with alkaline phosphatase (AP). […] This band was only observed in the supernatant of HEK cells expressing active MT-2 that was treated with the probe.
(§2) To confirm that biotin-RQRR-CMK binds to the active site of MT-2, we added aprotinin to the supernatants of HEK-MT-2 cells. Treatment with aprotinin or DMSO was carried out 2 h prior to probe treatment. […] MT-2 was present in the supernatant of transfected HEK cells incubated with the probe and/or aprotinin (Figure 6: panel a).
as §1, with “solution. […]” for “solution.”

MT-2 = details: active-site directed inhibitor of serine proteases; ref [1],[38]; cited from earlier work
Description: as §2

Row | Molecule | Ki (matriptase-2 (MT-2) [1]; surface of stably transfected HEK cells, probe 100–600 nM, substrate 40 µM, MT-2 assay buffer, 37 °C, 50 min, linear regression of progress curves, equation (3)) [nM] | Ki (in words) (matriptase-2 (MT-2) [1]; surface of transfected HEK cells) | kinac/Ki (second-order rate constant of inactivation) (matriptase-2 (MT-2) [2]) | protection of MT-2 from labeling by biotin-RQRR-CMK (matriptase-2 (MT-2) [3]) | inhibition of MT-2 (MT-2)
1 | N=C(N)NCCC[C@H](NC(=O)[C@H](CCCNC(=N)N)NC(=O)[C@H](CCC(N)=O)NC(=O)[C@H](CCCNC(=N)N)NC(=O)CCCC[C@@H]1SC[C@@H]2NC(=O)N[C@@H]21)C(=O)CCl [biotin-RQRR-CMK] (Biotin-RQRR-CH2Cl) | 89 | two-digit nanomolar Ki value | 10,800 M^−1 s^−1 | – | –
2 | aprotinin | – | – | – | labeled MT-2 fragment which was missing in HEK-MT-2 supernatants after aprotinin treatment | has been shown to inhibit MT-2
